# From ChEMBL document CHEMBL1201862, “PubChem BioAssay data set” (2004)
#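 Results reflect a 48-hour exposure of cells in 96-well plates to compound at five concentrations. Abbreviation: GI50, concentration required for 50% inhibition of growth.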 Activity calls are given as the source filed them. Rule as the data show it: active = GI50 up to about 1.1 µM and inactive = higher. *1 amine or outer side, *2 acyl side, *3 side chain or, on linkers, in order; H or OH if unused. Where a SMILES comes first, the peptide text is derived from it. Bridges are numbered along the chain shown (N, C = ends). Roman numbers before positions name the chains, in order. [ ]: non-standard residue; d: D form. Actinocin(9to1) = Cc1c2oc3c(C)ccc(C(=O)[*:1])c3nc-2c(C(=O)[*:2])c(N)c1=O; NMeV = CN[CH](C(=O)O)C(C)C; Sar = CNCC(=O)O
# Experiments:
# Assay in all cases: NCI-60 cell line screen, 48 h
# 786-0 = tested on: 786-0
# SF-539 = tested on: SF-539
# RXF 393 = tested on: RXF 393
# Malme-3M = tested on: Malme-3M
# HCT-15 = tested on: HCT-15
# CCRF-CEM = tested on: CCRF-CEM
# HL-60 = tested on: HL-60
# LOX IMVI = tested on: LOX IMVI
# A498 = tested on: A498
# CAKI-1 = tested on: CAKI-1
# NCI-H522 = tested on: NCI-H522
# OVCAR-5 = tested on: OVCAR-5
# NCI-H226 = tested on: NCI-H226
# ACHN = tested on: ACHN
# SNB-75 = tested on: SNB-75
# HCC 2998 = tested on: HCC 2998
# SK-MEL-28 = tested on: SK-MEL-28
# K562 = tested on: K562
# HT-29 = tested on: HT-29
# SK-MEL-5 = tested on: SK-MEL-5
SMILES,GI50 (786-0),GI50 (SF-539),GI50 (RXF 393),GI50 (Malme-3M),GI50 (HCT-15),GI50 (CCRF-CEM),GI50 (HL-60),GI50 (LOX IMVI),GI50 (A498),GI50 (CAKI-1),GI50 (NCI-H522),GI50 (OVCAR-5),GI50 (NCI-H226),GI50 (ACHN),GI50 (SNB-75),GI50 (HCC 2998),GI50 (SK-MEL-28),GI50 (K562),GI50 (HT-29),GI50 (SK-MEL-5)
Nn1c(S)nnc1COc1cccc(OCc2nnc(S)n2N)c1,34.3 µM (inactive),80 µM (inactive),> 100 µM (inactive),> 100 µM (inactive),58.7 µM,30.7 µM (inactive),86.3 µM (inactive),32.4 µM (inactive),> 100 µM (inactive),> 100 µM (inactive),65.3 µM (inactive),> 100 µM (inactive),> 100 µM (inactive),> 100 µM (inactive),> 100 µM (inactive),> 100 µM (inactive),> 100 µM (inactive),4.9 µM (inactive),43.7 µM (inactive),
Cc1ccc(O)c(C(c2ccc([N+](=O)[O-])cc2)c2cc(C)ccc2O)c1,21.2 µM (inactive),15.3 µM (inactive),8.09 µM (inactive),,8.18 µM,10.8 µM (inactive),1.47 µM (inactive),22.7 µM (inactive),18.4 µM (inactive),15.1 µM (inactive),12.3 µM (inactive),14.6 µM (inactive),15.9 µM (inactive),6.1 µM (inactive),2.18 µM (inactive),2.99 µM (inactive),16.6 µM (inactive),12.2 µM (inactive),12.2 µM (inactive),5.75 µM (inactive)
O=C(O)C(=C\c1ccc2c(c1)OCO2)/C(=C/c1ccc2c(c1)OCO2)C(=O)O,,,> 100 µM (inactive),> 100 µM (inactive),> 100 µM,> 100 µM (inactive),> 100 µM (inactive),> 100 µM (inactive),> 100 µM (inactive),> 100 µM (inactive),,> 100 µM (inactive),> 100 µM (inactive),,> 100 µM (inactive),> 100 µM (inactive),> 100 µM (inactive),> 100 µM (inactive),> 100 µM (inactive),> 100 µM (inactive)
C[N+](C)(C)c1ncnc2c1ncn2C1CC(O)C(CO)O1 (stereo unspecified),> 100 µM (inactive),> 100 µM (inactive),> 100 µM (inactive),> 100 µM (inactive),> 100 µM,> 100 µM (inactive),> 100 µM (inactive),> 100 µM (inactive),> 100 µM (inactive),> 100 µM (inactive),> 100 µM (inactive),> 100 µM (inactive),> 100 µM (inactive),> 100 µM (inactive),> 100 µM (inactive),> 100 µM (inactive),> 100 µM (inactive),> 100 µM (inactive),> 100 µM (inactive),> 100 µM (inactive)
"Cc1c2oc3c(C)ccc(C(=O)NC4C(=O)NC(C(C)O)C(=O)N5CCCC5C(=O)N(C)CC(=O)N(C)C(C(C)C)C(=O)OC4C)c3nc-2c(C(=O)NC2C(=O)NC(C(C)O)C(=O)N3CCCC3C(=O)N(C)CC(=O)N(C)C(C(C)C)C(=O)OC2C)c(N)c1=O (stereo unspecified) (I: TTP[Sar][NMeV] / II: TTP[Sar][NMeV]; ester I:1-I:C, II:1-II:C; linker I:N-II:N via Actinocin(9to1); configuration not given here)",0.136 µM (active),0.0764 µM (active),0.0946 µM (active),0.125 µM (active),7.48 µM,0.119 µM (active),0.437 µM (active),0.0493 µM (active),0.774 µM (active),4.07 µM (inactive),0.0766 µM (active),1.95 µM (inactive),0.0344 µM (active),0.427 µM (active),0.198 µM (active),1.54 µM (inactive),0.147 µM (active),0.0448 µM (active),0.34 µM (active),0.167 µM (active)
COc1cccc(/C=C2/S/C(=N/Nc3nc(C)c(C(C)=O)s3)NC2=O)c1O,27.8 µM (inactive),34.8 µM (inactive),28.8 µM (inactive),33 µM (inactive),26.2 µM,18.2 µM (inactive),12.4 µM (inactive),31.7 µM (inactive),33.9 µM (inactive),47.5 µM (inactive),17.3 µM (inactive),26.4 µM (inactive),37.7 µM (inactive),22 µM (inactive),37.9 µM (inactive),35.6 µM (inactive),39.7 µM (inactive),31.1 µM (inactive),37.6 µM (inactive),20.9 µM (inactive)
COc1ccc2nc3cc(Cl)ccc3c(NCCCCCC(=O)NC(COc3ccc4ccc5cccnc5c4n3)COc3ccc4ccc5cccnc5c4n3)c2c1,15.4 µM (inactive),16.9 µM (inactive),19.8 µM (inactive),45.9 µM (inactive),35.3 µM,2.28 µM (inactive),9.64 µM (inactive),21.4 µM (inactive),17.3 µM (inactive),25.3 µM (inactive),24.1 µM (inactive),24.4 µM (inactive),20.8 µM (inactive),15.5 µM (inactive),21 µM (inactive),14.9 µM (inactive),24.2 µM (inactive),13.5 µM (inactive),27.9 µM (inactive),16.8 µM (inactive)
COc1ccc2c(c1)OC[C@@H]1c3cc(O)c(OCc4ccccc4)cc3O[C@H]21,37.3 µM (inactive),90.4 µM (inactive),25.9 µM (inactive),28.1 µM (inactive),22 µM,34.3 µM (inactive),16.8 µM (inactive),30 µM (inactive),6.62 µM (inactive),24.1 µM (inactive),13.5 µM (inactive),66.5 µM (inactive),27.3 µM (inactive),22.9 µM (inactive),14.2 µM (inactive),36.2 µM (inactive),32.9 µM (inactive),31.8 µM (inactive),34.2 µM (inactive),13.1 µM (inactive)
O=C(CCCN1CCC(C(O)c2ccc(F)cc2)CC1)c1ccc(F)cc1 (stereo unspecified),44.9 µM (inactive),59.4 µM (inactive),41.1 µM (inactive),55.3 µM (inactive),62.2 µM,76.2 µM (inactive),35.9 µM (inactive),50 µM (inactive),49 µM (inactive),53.7 µM (inactive),66.8 µM (inactive),58.2 µM (inactive),53.3 µM (inactive),50.6 µM (inactive),44.3 µM (inactive),41.1 µM (inactive),59.3 µM (inactive),39.7 µM (inactive),42.3 µM (inactive),46.7 µM (inactive)
N/C(=N\O)N/N=C/c1cc2c(cc1Cl)OCO2,,31.8 µM (inactive),38.4 µM (inactive),> 100 µM (inactive),13.7 µM,27 µM (inactive),13.1 µM (inactive),31.5 µM (inactive),65.6 µM (inactive),37.5 µM (inactive),16 µM (inactive),32.5 µM (inactive),29.1 µM (inactive),,30.1 µM (inactive),26 µM (inactive),64.4 µM (inactive),26.1 µM (inactive),46.1 µM (inactive),24.2 µM (inactive)
COc1cc(=O)oc(/C=C/C=O)c1C,20.7 µM (inactive),18.7 µM (inactive),18.8 µM (inactive),21.7 µM (inactive),,5.36 µM (inactive),13.5 µM (inactive),5.2 µM (inactive),> 100 µM (inactive),33 µM (inactive),19.8 µM (inactive),38.3 µM (inactive),31.2 µM (inactive),19.2 µM (inactive),16.3 µM (inactive),17.9 µM (inactive),12.6 µM (inactive),8.53 µM (inactive),19.9 µM (inactive),20.6 µM (inactive)
CN(C)CC1CCC/C(=C\c2ccccc2)C1=O (stereo unspecified),2.65 µM (inactive),4.04 µM (inactive),2.84 µM (inactive),1.85 µM (inactive),2.14 µM,0.959 µM (active),0.512 µM (active),1.69 µM (inactive),17.4 µM (inactive),1.77 µM (inactive),1.57 µM (inactive),15.6 µM (inactive),2.82 µM (inactive),3.5 µM (inactive),13.8 µM (inactive),15.5 µM (inactive),2.23 µM (inactive),,1.75 µM (inactive),8.79 µM (inactive)
NN=C(S)Nc1cccc(Cl)c1,> 100 µM (inactive),> 100 µM (inactive),> 100 µM (inactive),> 100 µM (inactive),48.2 µM,25.8 µM (inactive),> 100 µM (inactive),> 100 µM (inactive),> 100 µM (inactive),> 100 µM (inactive),95.9 µM (inactive),> 100 µM (inactive),,> 100 µM (inactive),> 100 µM (inactive),64.7 µM (inactive),> 100 µM (inactive),36.6 µM (inactive),37.4 µM (inactive),> 100 µM (inactive)
FC(F)(F)c1ccc2c(c1)nc1n2C(c2c(Cl)cccc2Cl)SC1 (stereo unspecified),16.6 µM (inactive),19.7 µM (inactive),14.4 µM (inactive),18.2 µM (inactive),21.6 µM,,23.8 µM (inactive),25.9 µM (inactive),17.9 µM (inactive),14.9 µM (inactive),22 µM (inactive),15.5 µM (inactive),21.1 µM (inactive),15.9 µM (inactive),15.1 µM (inactive),21.8 µM (inactive),14.4 µM (inactive),,16.1 µM (inactive),
